The results in this text go back to patent US20110269790A1, “NOVEL THIENOPYRIDINES AS PHARMACOLOGICALLY ACTIVE AGENTS” (priority 2009, published 2011).

≈ marks a conversion by molar mass, not a printed value. Where “and” joins values, the source holds several entries; their conditions need not be identical. Equal entries are not always repeated. Where two headings read alike, the source gives them in different places.

For one assay, the system named is Wistar rats. As to the kind of experiment: Carrageenan induced paw edema model. It counts as in vivo, rat. Particulars: for change in vivo at 100 mg/kg / inhibition in vivo at 100 mg/kg: Rattus norvegicus; for change in vivo at 100 mg/kg: read-out: % Increase in Paw Volume; for inhibition in vivo at 100 mg/kg: read-out: % Inhibition (paw volume). Here is the method:
Male Albino Wistar rats of 150-180 grams were used for the experiments.
Anti-inflammatory activity of test compounds was evaluated in Wistar rats employing the method of Winter et al (1963) and Diwan et al (1989). Male Wistar rats were used for the study. […] The different test compounds were administered to the animals in the test group at the dose of 100 mg/kg, by oral route. Animals in the standard group received Indomethacin at the dose of 10 mg/kg, by oral route. All test and standard compounds were administered as 1% gum acacia suspension. Rats in the control group received the vehicle solution without drugs. One hour after test drugs administration, rats in all the groups were challenged with 0.1 ml of 1% Carrageenan in the sub plantar region of right hind paw. A zero hour paw volume was measured for all the rats using digital plethysmometer (Ugo Basile, Italy) before the administration of carrageenan for all groups. Paw volumes were again measured 3 hrs after the challenge of Carrageenan. The percent inhibition of paw volume for each rat in treated groups was calculated by comparing with mean paw volume of control group and expressed as mean (±SE) percent inhibition of paw volume for each test. In a preliminary study the compounds that have shown good activity were evaluated for dose response study by using above procedure.

Assay [1] concerns A431 (Skin cancer) cell lines. As to the kind of experiment: MTT assay, A431. It counts as cell-based. Particulars: Homo sapiens, read-out: A431 cell lines IC50. Here is the method: (§1) A431 (Skin cancer), Colo-205 (Colon cancer), A549 (Lung cancer) cell lines were obtained from National Center for Cell science (NCCS), Pune, India. DMEM (Dulbeccos Modified Eagles Medium), MTT [3-(4,5-dimethylthiazol-2-yl)-2,5-diphenyl tetrazolium bromide], Trypsin, EDTA were purchased from Sigma Chemicals Co (St. Louis, Mo.), Fetal bovine serum were purchased from Arrow labs, 96 well flat bottom tissue culture plates were purchased from Tarson.
(§2) A431, Colo-205, A549 cell lines were grown as adherent cells in DMEM media supplemented with 10% fetal bovine serum, 100 μg/ml penicillin, 200 μg/ml streptomycin, 2 mM L-glutamine, and culture was maintained in a humidified atmosphere with 5% CO2. Stock solution of 10 mg/ml was prepared for test molecules in DMSO. From the stock, various dilutions were made with sterile water to get required concentration. A431, Colo-205, A549 cell lines were seeded at a density of 1×10^4 cells (cell number was determined by Trypan blue exclusion dye method) per each well in 100 μl of DMEM supplemented with 10% FBS. 12 hrs after seeding, above media was replaced with fresh DMEM supplemented with 10% FBS. Then, 10 μl sample from above stock solutions were added to each well in triplicates which gives final concentration of 100, 50, 25, 10 μg/well. The above cells were incubated for 48 hrs at 37° C. with 5% CO2. After 48 hrs incubation the above media was replaced with 100 μl of fresh DMEM with out FBS and to this 10 μl of MTT (5 mg dissolved in 1 ml of PBS) was added and incubated for 3 hrs at 37° C. with 5% CO2. After 3 hrs of incubation, the above media was removed with multi channel pipette, then 200 μl of DMSO was added to each well and incubated at 37° C. for 15 min. Finally, the plate was read at 570 nm using spectrophotometer (Spectra Max, Molecular devices).

A further assay deals with Colo-205 (Colon cancer). As to the kind of experiment: MTT assay, Colo-205. It counts as cell-based. The conditions noted are these: for IC50: Homo sapiens, read-out: Colo-205 IC50. As to the method:
as §1, §2

The subject of assay [2] is crude intestinal α-glucosidase. Description: In-vitro mammalian (rat intestinal) α-glucosidase inhibition assay. It counts as biochemical. Particulars: for Mammalian α Glucosidase Inhibition (Mean ± S.E): highest concentration 5 mg/ml. An excerpt:
Chemicals: α-Glucosidase [(EC 3.2.1.20) Type I: from bakers yeast], rat intestinal acetone powder (as a source of crude intestinal α-glucosidase), α-amylase [EC 3.2.1.1) Type VI B: from porcine pancreas], p-nitrophenyl α-D-glucopyranoside, 3,5-dinitro salicylic acid, soluble potato starch and 1-deoxyrojirimycine, were purchased from Sigma Chemical Co., St Louis, Mo., USA. Other chemicals of analytical grade were procured from indigenous manufacturers.
In-vitro a-Glucosidase Inhibition Assay: Yeast and intestinal a-glucosidase inhibitory activities were determined as per reported methods (Babu et al., 2004; Mc Dougall et al., 2005). Rat intestinal acetone powder in normal saline (100% w/v) was sonicated properly and the supernatant was used as a source of crude intestinal a-glucosidase after centrifugation. In brief, 20 μl, of test samples (100 mg/ml DMSO solution) were reconstituted in 100 μl of 100 mM-Phosphate buffer (pH 6.8) in a 96-well microplate and incubated with 50 μl yeast a-glucosidase (0.76 μ/ml in same buffer) or crude intestinal a-glucosidase for 5 min before 50-μl substrate (5 mM, […] prepared in same buffer) was added. Release of p-nitrophenyol was measured at 405 nm spectrophotometrically (Spectra Mas Plus 384, Molecular Device corporation, Sunnyvale, Calif., USA) 5 min after incubation with substrate, individual blank for test samples were prepared to correct background absorbance where the substrate was replaced with 50 μl of buffer. The control sample contained 20 μl DMSO in place of test samples. The percentage of enzyme inhibition was calculated as (A−B/A)×100 where A is represents the absorbance of the control without test samples, and B represents the absorbance in the presence of test samples. […] The IC50 values were calculated by applying logarithmic regression analysis from the mean inhibitory values.

[3] abbreviates: test compounds 100 mg/kg oral, Indomethacin 10 mg/kg oral, 3 hrs after Carrageenan.
The mark [4] stands for this setting: 50 mg/kg oral, dose response study, n=6.
[5] abbreviates: 100 mg/kg oral, dose response study, n=6.
Setting [6] is: 200 mg/kg oral, dose response study, n=6.

Regarding `Cc1sc2nc3c(c(N)c2c1C)CCC3` [BN-1, 2,3-dimethyl-6,7-dihydro-5H-cyclopenta[b]thieno[3,2-e]pyridin-4-amine], in the assay with Wistar rats (setting [3]), the change in vivo at 100 mg/kg worked out at 87.9 ± 2.78% and the inhibition in vivo at 100 mg/kg was 24.7 ± 5.49%. For the same molecule, the IC50 in assay [1] (A-431, MTT, 48 hrs) was 45.7 µg/mL (≈ 209 µM). Further, the IC50 with Colo-205 (Colon cancer) (COLO 205, MTT, 48 hrs) turned out to be 245 µg/mL (≈ 1120 µM). For the same molecule, the “Mammalian α Glucosidase Inhibition (Mean ± S.E)” value in assay [2] came to 0.0 ± 0.0%.

`Cc1sc2nc3c(c(N)c2c1C)CCCC3` [BN-2, 2,3-dimethyl-5,6,7,8-tetrahydrothieno[2,3-b]quinolin-4-amine]: in the assay with Wistar rats (setting [3]), the change in vivo at 100 mg/kg was 83.1 ± 2.66% and the inhibition in vivo at 100 mg/kg was found to be 20.6 ± 2.05%. For the same molecule, in assay [1] (A-431, MTT, 48 hrs), the IC50 was 31.6 µg/mL (≈ 136 µM). The IC50 in the assay on Colo-205 (Colon cancer) (COLO 205, MTT, 48 hrs) worked out at 117 µg/mL (≈ 504 µM). Further, in assay [2], the “Mammalian α-glucosidase inhibitory activity (in words)” value was “moderate inhibitory activity” and the “Mammalian α Glucosidase Inhibition (Mean ± S.E)” value worked out at 40.0 ± 2.5%.

For the molecule `Cc1sc2nc3c(c(N)c2c1C)CCCCC3` [BN-4, 2,3-dimethyl-6,7,8,9-tetrahydro-5H-cyclohepta[b]thieno[3,2-e]pyridin-4-amine], in the assay with Wistar rats (setting [4]), the “% Inhibition” value is listed as 23.93 ± 2.96% and the “Percentage Swelling (50 mg/kg)” value amounted to 73.27 ± 4.47 %. In the assay with Wistar rats (setting [5]), the “% Inhibition” value was 35.68 ± 3.77% and the “Percentage Swelling (100 mg/kg)” value was 64.42 ± 3.97 %. Also, in the assay on Wistar rats (setting [6]), the “% Inhibition” value is 53.2% and 53.2 ± 3.03%; the “Percentage Swelling (200 mg/kg)” value is recorded as 44.23 ± 3.34 %. Further, in the assay on Wistar rats (setting [3]), the change in vivo at 100 mg/kg is 68.1 ± 3.41% and the inhibition in vivo at 100 mg/kg was determined as 41.8 ± 3.77%. Besides, the IC50 in assay [1] (A-431, MTT, 48 hrs) was 47.8 µg/mL (≈ 194 µM). Further, the “Colo-205 IC50” value in the assay on Colo-205 (Colon cancer) (MTT, 48 hrs) is on record as “No activity”. Moreover, in assay [2], the “Mammalian α-glucosidase inhibitory activity (in words)” value is recorded as “moderate inhibitory activity” and the “Mammalian α Glucosidase Inhibition (Mean ± S.E)” value is reported as 38.37 ± 1.0%.

For `Nc1c2c(nc3sc4c(c13)CCCC4)CCC2` [BN-5, 2,3,6,7,8,9-Hexahydro-1H-benzo[4,5]thieno[2,3-b]cyclopenta[e]pyridin-10-amine], in the assay with Wistar rats (setting [3]), the change in vivo at 100 mg/kg was found to be 101 ± 2.94% and the inhibition in vivo at 100 mg/kg worked out at 4.32 ± 1.19%. Besides, the IC50 in assay [1] (A-431, MTT, 48 hrs) is 141 µg/mL (≈ 577 µM). Besides, the “Colo-205 IC50” value with Colo-205 (Colon cancer) (MTT, 48 hrs) is on record as “No activity”. In addition, the “Mammalian α Glucosidase Inhibition (Mean ± S.E)” value in assay [2] was 0.0 ± 0.0%.

As to `Nc1c2c(nc3sc4c(c13)CCCC4)CCCC2` [BN-6, 1,2,3,4,7,8,9,10-Octahydrobenzo[4,5]thieno[2,3-b]quinolin-11-amine], in the assay with Wistar rats (setting [3]), the change in vivo at 100 mg/kg stood at 109 ± 2.73% and the inhibition in vivo at 100 mg/kg was 3.14 ± 1.96%. Besides, the IC50 in assay [1] (A-431, MTT, 48 hrs) turned out to be 36.3 µg/mL (≈ 140 µM). For the same molecule, the IC50 in the assay with Colo-205 (Colon cancer) (COLO 205, MTT, 48 hrs) was 162 µg/mL (≈ 627 µM). Moreover, in assay [2], the “Mammalian α Glucosidase Inhibition (Mean ± S.E)” value came to 19.92 ± 1.27%.

With `CC1CCc2c(nc3sc4c(c3c2N)CCCC4)C1` (stereo not shown) [BN-7, 8-Methyl-1,2,3,4,7,8,9,10-octahydrobenzo[4,5]thieno[2,3-b]quinolin-11-amine], in the assay on Wistar rats (setting [3]), the change in vivo at 100 mg/kg was found to be 113 ± 22.3% and the inhibition in vivo at 100 mg/kg was 0.7 ± 0.7%. In assay [1] (A-431, MTT, 48 hrs), the concentration for half-maximal inhibition (IC50) was found to be 36.3 µg/mL (≈ 133 µM). The IC50 in the assay on Colo-205 (Colon cancer) (COLO 205, MTT, 48 hrs) worked out at 70.7 µg/mL (≈ 260 µM). In assay [2], the “Mammalian α-glucosidase inhibitory activity (in words)” value was “moderate inhibitory activity” and the “Mammalian α Glucosidase Inhibition (Mean ± S.E)” value stood at 50.19 ± 0.93%.

On to `Nc1c2c(nc3sc4c(c13)CCCC4)CCCCC2` [BN-8, 2,3,4,7,8,9,10,11-Octahydro-1H-benzo[4,5]thieno[2,3-b]cyclohepta [e]pyridin-12-amine], for which, in the assay with Wistar rats (po, 3 h), the change in vivo at 100 mg/kg was 109 ± 4.87% and the inhibition in vivo at 100 mg/kg turned out to be 1.2 ± 0.87%. The IC50 in assay [1] (A-431, 48 h) turned out to be 51.1 µg/mL (≈ 188 µM). The IC50 in the assay with Colo-205 (Colon cancer) (COLO 205, 48 h) worked out at 70.8 µg/mL (≈ 260 µM). In assay [2], the “Mammalian α Glucosidase Inhibition (Mean ± S.E)” value is listed as 10.76 ± 0.92%.

On to `Nc1c2c(nc3sc4c(c13)CCC4)CCC2` [BN-13, 1,2,3,6,7,8-hexahydrocyclopenta [b]cyclopenta[4,5] thieno[3,2-e]pyridin-9-amine], for which the change in vivo at 100 mg/kg with Wistar rats (po, 3 h) was 91.7 ± 25.7%. Besides, in the assay with Wistar rats (po, 3 h), the inhibition in vivo at 100 mg/kg worked out at 12.3 ± 1.95%. Besides, the IC50 in assay [1] (A-431, 48 h) was 50.1 µg/mL (≈ 218 µM); with Colo-205 (Colon cancer) (COLO 205, 48 h), 144 µg/mL (≈ 625 µM); in assay [2] (mammalian α-glucosidase, dose response study), 509 µg/mL (≈ 2210 µM). Also, the “Mammalian α-glucosidase inhibitory activity (in words)” value in assay [2] was “significant inhibitory activity”. Also, the “Mammalian α-glucosidase inhibition (Mean ± S.E)” value came to 10.06 ± 1.36% in assay [2] (0.039063 mg/ml); 27.07 ± 1.93% in assay [2] (0.078125 mg/ml); 34.89 ± 2.28% in assay [2] (0.15625 mg/ml); 44.87 ± 1.62% in assay [2] (0.3125 mg/ml); 52.97 ± 1.47% in assay [2] (0.625 mg/ml); 67.24 ± 1.08% in assay [2] (1.25 mg/ml). The “Mammalian α-glucosidase inhibition (Mean ± S.E)” value in assay [2] (2.5 mg/ml) turned out to be 71.39 ± 1.82%; in assay [2] (5 mg/ml), 76.13 ± 0.03%. The “Mammalian α Glucosidase Inhibition (Mean ± S.E)” value in assay [2] worked out at 76.13%.

Turning to `COc1ccc2c(c1)c(CC(=O)O)c(C)n2C(=O)c1ccc(Cl)cc1` [Indomethacin, reference compound], in the assay on Wistar rats (setting [3]), the change in vivo at 100 mg/kg is 41.7 ± 9.97% and the inhibition in vivo at 100 mg/kg is 50.1 ± 12.1%.
